Key:
[1] = Stability of cannabinoid compounds and Vitamin E components in Beverage 1 (AB White) by LCMSMS; assay type: physicochemical; conditions: AB White stored at 21-25° C.
[2] = Stability of cannabinoid entourage and Vitamin E components of the powder concentrate by LCMSMS; assay type: physicochemical; conditions: powder stored at 21-25° C.
Protocol: At each time period, 0.05 g of powder was dissolved in 10 ml-15 of ethanol, diluted to fall within the analytical range, and injected into the LCMSMS for analysis.

CCCc1cc(O)c2c(c1)OC(C)(C)[C@@H]1CCC(C)=C[C@@H]21 [THCV, delta-9-tetrahydrocannabivarin]
Stability of Plant-Derived Cannabinoid Compounds in AB White, 21-25° C. ([1]; 29 days): 3.62 µg/mL
Stability of Plant-Derived Cannabinoid Compounds in AB White, 21-25° C. ([1]; 30 days): 3.48 µg/mL
Stability of Plant-Derived Cannabinoid Compounds in AB White, 21-25° C. ([1]; 60 days): 3.50 µg/mL
Stability of Plant-Derived Cannabinoid Compounds in AB White, 21-25° C. ([1]; 90 days): 3.47 µg/mL
Stability of Plant-Derived Cannabinoid Compounds in AB White, 21-25° C. ([1]; 120 days): 3.45 µg/mL
Stability of Plant-Derived Cannabinoid Compounds in AB White, 21-25° C. ([1]; 150 days): 3.54 µg/mL
Stability of Plant-Derived Cannabinoid Compounds in AB White, 21-25° C. ([1]; 180 days): 3.52 µg/mL
Stability of Plant-Derived Cannabinoid Compounds in AB White, 21-25° C. ([1]; 210 days): 3.40 µg/mL
Stability of Plant-Derived Cannabinoid Compounds in AB White, 21-25° C. ([1]; 240 days): 3.41 µg/mL
Stability of Plant-Derived Cannabinoid Compounds in AB White, 21-25° C. ([1]; 270 days): 3.56 µg/mL
Stability of Plant-Derived Cannabinoid Compounds in AB White, 21-25° C. ([1]; 300 days): 3.52 µg/mL
Stability of Plant-Derived Cannabinoid Compounds in AB White, 21-25° C. ([1]; 330 days): 3.55 µg/mL
Stability of Plant-Derived Cannabinoid Compounds in AB White, 21-25° C. ([1]; 360 days): 3.49 µg/mL
Stability of Plant-Derived Cannabinoid Compounds in AB White, 21-25° C. ([1]; 390 days): 3.40 µg/mL
Stability of Plant-Derived Cannabinoid Compounds in AB White, 21-25° C. ([1]; 420 days): 3.46 µg/mL
Stability of Plant-Derived Cannabinoid Compounds in AB White, 21-25° C. ([1]; 450 days): 3.47 µg/mL
Stability of Plant-Derived Cannabinoid Compounds in AB White, 21-25° C. ([1]; 480 days): 3.30 µg/mL
Stability of Plant-Derived Cannabinoid Compounds in AB White, 21-25° C. ([1]; 510 days): 3.32 µg/mL
Stability of Plant-Derived Cannabinoid Compounds in AB White, 21-25° C. ([1]; 540 days): 3.44 µg/mL
Stability of Plant-Derived Cannabinoid Compounds in AB White, 21-25° C. ([1]; 570 days): 3.30 µg/mL
Stability of Plant-Derived Cannabinoid Compounds in Powder Concentrate ([2]; 0 days): 0.680 mg/g powder
Stability of Plant-Derived Cannabinoid Compounds in Powder Concentrate ([2]; 1 days): 0.685 mg/g powder
Stability of Plant-Derived Cannabinoid Compounds in Powder Concentrate ([2]; 2 days): 0.699 mg/g powder
Stability of Plant-Derived Cannabinoid Compounds in Powder Concentrate ([2]; 3 days): 0.698 mg/g powder
Stability of Plant-Derived Cannabinoid Compounds in Powder Concentrate ([2]; 5 days): 0.676 mg/g powder
Stability of Plant-Derived Cannabinoid Compounds in Powder Concentrate ([2]; 8 days): 0.685 mg/g powder
Stability of Plant-Derived Cannabinoid Compounds in Powder Concentrate ([2]; 9 days): 0.693 mg/g powder
Stability of Plant-Derived Cannabinoid Compounds in Powder Concentrate ([2]; 10 days): 0.706 mg/g powder
Stability of Plant-Derived Cannabinoid Compounds in Powder Concentrate ([2]; 11 days): 0.708 mg/g powder
Stability of Plant-Derived Cannabinoid Compounds in Powder Concentrate ([2]; 12 days): 0.698 mg/g powder
Stability of Plant-Derived Cannabinoid Compounds in Powder Concentrate ([2]; 15 days): 0.684 mg/g powder
Stability of Plant-Derived Cannabinoid Compounds in Powder Concentrate ([2]; 16 days): 0.658 mg/g powder
Stability of Plant-Derived Cannabinoid Compounds in Powder Concentrate ([2]; 17 days): 0.681 mg/g powder
Stability of Plant-Derived Cannabinoid Compounds in Powder Concentrate ([2]; 18 days): 0.690 mg/g powder
Stability of Plant-Derived Cannabinoid Compounds in Powder Concentrate ([2]; 19 days): 0.705 mg/g powder
Stability of Plant-Derived Cannabinoid Compounds in Powder Concentrate ([2]; 22 days): 0.703 mg/g powder
Stability of Plant-Derived Cannabinoid Compounds in Powder Concentrate ([2]; 23 days): 0.687 mg/g powder
Stability of Plant-Derived Cannabinoid Compounds in Powder Concentrate ([2]; 24 days): 0.668 mg/g powder
Stability of Plant-Derived Cannabinoid Compounds in Powder Concentrate ([2]; 25 days): 0.689 mg/g powder
Stability of Plant-Derived Cannabinoid Compounds in Powder Concentrate ([2]; 26 days): 0.686 mg/g powder
Stability of Plant-Derived Cannabinoid Compounds in Powder Concentrate ([2]; 29 days): 0.706 mg/g powder
Stability of Plant-Derived Cannabinoid Compounds in Powder Concentrate ([2]; 30 days): 0.659 mg/g powder
Stability of Plant-Derived Cannabinoid Compounds in Powder Concentrate ([2]; 60 days): 0.702 mg/g powder
Stability of Plant-Derived Cannabinoid Compounds in Powder Concentrate ([2]; 90 days): 0.707 mg/g powder
Stability of Plant-Derived Cannabinoid Compounds in Powder Concentrate ([2]; 120 days): 0.658 mg/g powder
Stability of Plant-Derived Cannabinoid Compounds in Powder Concentrate ([2]; 150 days): 0.695 mg/g powder
Stability of Plant-Derived Cannabinoid Compounds in Powder Concentrate ([2]; 180 days): 0.685 mg/g powder
Stability of Plant-Derived Cannabinoid Compounds in Powder Concentrate ([2]; 210 days): 0.662 mg/g powder
Stability of Plant-Derived Cannabinoid Compounds in Powder Concentrate ([2]; 240 days): 0.700 mg/g powder
Stability of Plant-Derived Cannabinoid Compounds in Powder Concentrate ([2]; 270 days): 0.670 mg/g powder
Stability of Plant-Derived Cannabinoid Compounds in Powder Concentrate ([2]; 300 days): 0.685 mg/g powder
Stability of Plant-Derived Cannabinoid Compounds in Powder Concentrate ([2]; 330 days): 0.691 mg/g powder
Stability of Plant-Derived Cannabinoid Compounds in Powder Concentrate ([2]; 360 days): 0.668 mg/g powder
Stability of Plant-Derived Cannabinoid Compounds in Powder Concentrate ([2]; 390 days): 0.680 mg/g powder
Stability of Plant-Derived Cannabinoid Compounds in Powder Concentrate ([2]; 420 days): 0.671 mg/g powder
Stability of Plant-Derived Cannabinoid Compounds in Powder Concentrate ([2]; 450 days): 0.680 mg/g powder
Stability of Plant-Derived Cannabinoid Compounds in Powder Concentrate ([2]; 480 days): 0.695 mg/g powder
Stability of Plant-Derived Cannabinoid Compounds in Powder Concentrate ([2]; 510 days): 0.696 mg/g powder
Stability of Plant-Derived Cannabinoid Compounds in Powder Concentrate ([2]; 540 days): 0.664 mg/g powder
Stability of Plant-Derived Cannabinoid Compounds in Powder Concentrate ([2]; 570 days): 0.686 mg/g powder
